Source: patent publication US20170360875A1 (priority 2014, published 2017)
“And” between values parts separate entries of the source, which are not always exact repeats. Equal entries are not always repeated. Where two headings read alike, the source gives them in different places. Ends that are not written are not given here.

How the values were obtained:
[1] = molecular target: Influenza A/MAL/NY/6750/78 H2N2 virus; test: reverse ELISA; PAP IC without inhibitor on plate coated with IAV 1:100
[2] = molecular target: hepatitis A virus; test: reverse ELISA; PAP IC without inhibitor on plate coated with HAV 1:100; average of three experiments
[3] = molecular target: FcγIIa (R131 allele) (UniProt P12318)
[4] = molecular target: human C1q (Quidel Corp.) (human) (UniProt P02745); test: reverse ELISA; PAP IC without inhibitor on C1q-coated plate
Sequence of UniProt P02745 (P02745 23-245 limits assumed, chain 1 of 3): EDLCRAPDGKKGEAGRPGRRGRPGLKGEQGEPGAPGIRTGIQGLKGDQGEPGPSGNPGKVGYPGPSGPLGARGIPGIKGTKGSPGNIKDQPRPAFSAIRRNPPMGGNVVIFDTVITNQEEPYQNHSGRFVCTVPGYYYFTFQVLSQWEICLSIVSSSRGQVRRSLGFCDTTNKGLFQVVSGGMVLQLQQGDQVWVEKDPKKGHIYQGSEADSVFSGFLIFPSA
Sequence of UniProt P02745 (P02746 28-253 limits assumed, chain 2 of 3, further chain): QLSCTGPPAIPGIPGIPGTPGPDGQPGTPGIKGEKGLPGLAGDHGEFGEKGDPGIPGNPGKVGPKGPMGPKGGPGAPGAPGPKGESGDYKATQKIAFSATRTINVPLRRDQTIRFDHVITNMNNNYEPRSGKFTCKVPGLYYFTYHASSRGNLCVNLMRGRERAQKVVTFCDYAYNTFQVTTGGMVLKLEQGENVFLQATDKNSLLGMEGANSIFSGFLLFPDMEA
Sequence of UniProt P02745 (P02747 29-245 limits assumed, chain 3 of 3, further chain): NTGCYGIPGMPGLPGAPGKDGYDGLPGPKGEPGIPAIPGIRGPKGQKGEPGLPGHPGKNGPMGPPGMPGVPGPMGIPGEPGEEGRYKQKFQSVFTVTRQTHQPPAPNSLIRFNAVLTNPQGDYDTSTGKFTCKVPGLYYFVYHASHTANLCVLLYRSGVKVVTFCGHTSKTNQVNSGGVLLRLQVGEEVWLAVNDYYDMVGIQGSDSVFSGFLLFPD

[5] = molecular target: FcγIIb (UniProt P31994); test: reverse ELISA; PAP IC without inhibitor on plate coated with FcγIIb/c
Sequence of UniProt P31994 (P31994 46-217 limits assumed): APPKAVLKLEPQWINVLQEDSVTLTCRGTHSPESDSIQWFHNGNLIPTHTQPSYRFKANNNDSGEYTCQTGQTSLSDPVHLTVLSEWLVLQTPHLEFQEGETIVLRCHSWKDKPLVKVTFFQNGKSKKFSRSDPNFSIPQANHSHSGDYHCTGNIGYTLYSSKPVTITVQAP

[6] = molecular target: FcγIIIb (NA2) (UniProt O75015); test: reverse ELISA; PAP IC without inhibitor on plate coated with FcγIIIb (NA2)
Sequence of UniProt O75015 (O75015 17-200 N65S): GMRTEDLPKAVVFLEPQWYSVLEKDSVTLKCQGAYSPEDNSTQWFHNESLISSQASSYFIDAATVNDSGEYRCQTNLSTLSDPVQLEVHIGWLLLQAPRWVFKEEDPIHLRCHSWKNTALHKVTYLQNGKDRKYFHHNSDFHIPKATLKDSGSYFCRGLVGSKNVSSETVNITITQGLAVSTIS

[7] = molecular target: FcγIIIa (UniProt P08637); test: reverse ELISA; PAP IC without inhibitor on plate coated with FcγIIIa
Sequence of UniProt P08637 (P08637 17-208): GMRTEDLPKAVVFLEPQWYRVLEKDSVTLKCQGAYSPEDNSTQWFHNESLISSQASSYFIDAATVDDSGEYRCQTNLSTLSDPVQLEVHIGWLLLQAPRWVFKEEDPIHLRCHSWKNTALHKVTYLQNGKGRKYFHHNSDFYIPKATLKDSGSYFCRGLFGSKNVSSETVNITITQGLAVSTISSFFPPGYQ

[8] = molecular target: hepatitis A virus; test: reverse ELISA; PAP IC without inhibitor on plate coated with HAV 1:10; average of three experiments
[9] = molecular target: FcγIIb (UniProt P31994); test: reverse ELISA; PAP IC without inhibitor on plate coated with FcγIIb
[10] = molecular target: FcγI (UniProt P12314); test: reverse ELISA; PAP IC without inhibitor on plate coated with FcγI
Sequence of UniProt P12314 (P12314 16-288 limits assumed): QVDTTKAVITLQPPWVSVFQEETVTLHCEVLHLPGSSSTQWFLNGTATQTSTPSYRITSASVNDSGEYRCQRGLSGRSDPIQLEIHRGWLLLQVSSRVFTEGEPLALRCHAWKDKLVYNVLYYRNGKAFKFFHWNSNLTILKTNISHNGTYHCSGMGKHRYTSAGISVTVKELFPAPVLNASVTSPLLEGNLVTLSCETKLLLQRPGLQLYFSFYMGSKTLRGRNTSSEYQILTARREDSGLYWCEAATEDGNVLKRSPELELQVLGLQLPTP

[11] = molecular target: hepatitis C virus core protein (hepatitis C virus); test: reverse ELISA; PAP IC without inhibitor on plate coated with 5 µg HCV core protein; average of three experiments
[12] = molecular target: FcγIIa (H131 allele) (UniProt P12318)
[13] = molecular target: Influenza A/MAL/NY/6750/78 H2N2 virus; test: reverse ELISA; PAP IC without inhibitor on plate coated with IAV 1:10
[14] = molecular target: recombinant Sudan Ebolavirus glycoprotein (IBT Bioservices, Catalogue Number 0501-015) (Sudan Ebolavirus)
[15] = test system: FcγI; type: binding
[16] = test system: hepatitis A virus; type: binding; conditions: for 1:10 HAV (OD 405 nm): 1:10 virus dilution, IC alone 0.997; for 1:100 HAV (OD 405 nm): 1:100 virus dilution, IC alone 0.953
[17] = test system: FcγIIIb (NA2); type: binding
[18] = test system: FcγIIIa; type: binding
[19] = test system: hepatitis C virus core protein; type: binding; conditions: NB406 10 mg/mL
[20] = test system: FcγIIb/c; type: binding
[21] = test system: FcγIIb; type: binding
[22] = test system: Influenza A/MAL/NY/6750/78 H2N2 virus; conditions: for Percent Inhibition, 1:10 IAV / Percent Inhibition, 1:100 IAV: /MAL/NY/6750/78 H2N2 virus
[23] = test system: Sudan Ebolavirus (SEBOV)
[24] = test system: C1q; type: binding, human
[25] = test system: FcγIIa (H131 allele); type: binding, human
[26] = test system: Sudan Ebolavirus Glycoprotein (GP); type: binding
[27] = molecular target: hepatitis C virus core protein (hepatitis C virus); test: reverse ELISA control; HRP without antibody on plate coated with 5 µg HCV core protein
[28] = molecular target: hepatitis A virus; test: reverse ELISA control; HRP without antibody on plate coated with HAV 1:100
[29] = molecular target: hepatitis A virus; test: reverse ELISA control; HRP without antibody on plate coated with HAV 1:10
[30] = molecular target: Influenza A/MAL/NY/6750/78 H2N2 virus; test: reverse ELISA control; HRP without antibody on plate coated with IAV 1:100
[31] = molecular target: Influenza A/MAL/NY/6750/78 H2N2 virus; test: reverse ELISA control; HRP without antibody on plate coated with IAV 1:10
[32] = NB406 10 mg/mL, average of three experiments

## preformed immune complex of peroxidase-rabbit anti-peroxidase IgG (PAP complex) (from UniProt P00433 31-338)
[1]
  OD 405 nm: 1.87 OD 405 nm
[2]
  OD 405 nm: 0.953 OD 405 nm
[3]
  OD405: 1.6 OD405
[4]
  OD 405 nm: 2.35 OD 405 nm
[5]
  OD 405 nm: 2.22 OD 405 nm
[6]
  OD 405 nm: 3.06 OD 405 nm
[7]
  OD405: 1.59 OD405
[8]
  OD 405 nm: 0.997 OD 405 nm
[9]
  OD405: 1.39 OD405
[10]
  OD 405 nm: 2.33 OD 405 nm
[11]
  OD 405 nm: 2.75 OD 405 nm
[12]
  OD 405 nm: 3.51 OD 405 nm
[13]
  OD 405 nm: 1.94 OD 405 nm
[14]
  OD 405 nm: 1.61 OD 405 nm and 1.38 OD 405 nm and 1.31 OD 405 nm

## CC(C)C[C@@H]1NC(=O)[C@H](Cc2c[nH]cn2)NC(=O)[C@H](Cc2c[nH]c3ccccc23)NC(=O)[C@H](C)NC(=O)[C@@H](NC(=O)[C@H](CC(=O)O)NC(=O)[C@@H]2CCCN2C(=O)[C@@H]2CCCN2C(=O)[C@H](C)N)CSSC[C@@H](C(=O)N[C@H](C(=O)O)[C@@H](C)O)NC(=O)[C@H](Cc2c[nH]c3ccccc23)NC(=O)[C@H](C(C)C)NC(=O)[C@H](CC(C)C)NC(=O)[C@H](CCC(=O)O)NC(=O)CNC1=O [SEQ ID NO:20]
[15]
  % inhibition of IC binding, FcγI: 89%
  FcγI (read at 405 nm): 0.264
[16]; NB406 1.11 mg/mL
  1:10 HAV (OD 405 nm): 0.762
  1:100 HAV (OD 405 nm): 0.774
[16]; NB406 3.33 mg/mL
  1:10 HAV (OD 405 nm): 0.305
  1:100 HAV (OD 405 nm): 0.155
[16]; [32]
  1:10 HAV (OD 405 nm): 0.050
  1:100 HAV (OD 405 nm): 0.055
[16]; conclusion from Table 5
  prevention of binding of IC to the hepatitis A virus (in words): can effectively prevent the binding of IC to the hepatitis A virus
[17]
  % inhibition of IC binding, FcγIIIb (NA2): 91%
  FcγIIIb (NA2) (read at 405 nm): 0.266
[18]
  OD405 FcγIIIa: 0.670
[19]
  Percent Inhibition, 5 μg HCV Core Protein: 89.7%
[19]; IC alone 2.752, average of three experiments
  5 μg HCV Core Protein (OD 405 nm): 0.283
[20]
  % inhibition of IC binding, FcγIIb/c: 88%
  FcγIIb/c (read at 405 nm): 0.266
  inhibited binding of FcγRIIb to immune complexed IgG Fc: more than 70%
[21]
  OD405 FcγIIb: 0.496
[22]
  prevention of binding of IC to the influenza virus (in words): can effectively prevent the binding of IC to the influenza virus
[22]; 0.37 mg/mL
  Percent Inhibition, 1:10 IAV: 63.5%
  Percent Inhibition, 1:100 IAV: 61.6%
[22]; 1.11 mg/mL
  Percent Inhibition, 1:10 IAV: 89.5%
  Percent Inhibition, 1:100 IAV: 88.7%
[22]; 3.33 mg/mL
  Percent Inhibition, 1:10 IAV: 96.6%
  Percent Inhibition, 1:100 IAV: 96.0%
[22]; 10 mg/mL
  Percent Inhibition, 1:10 IAV: 97.6%
  Percent Inhibition, 1:100 IAV: 97.0%
[23]
  prevention of binding of IC to the Ebola virus (in words): can effectively prevent the binding of IC to the Ebola virus
[23]; 1 mg/mL
  Percent Inhibition, 1:100 SEV: 77.6%
  Percent Inhibition, 1:1000 SEV: 64.8%
  Percent Inhibition, 1:10000 SEV: 58.6%
[23]; 3 mg/mL
  Percent Inhibition, 1:100 SEV: 95.1%
  Percent Inhibition, 1:1000 SEV: 94.6%
  Percent Inhibition, 1:10000 SEV: 94.6%
[23]; 10 mg/mL
  Percent Inhibition, 1:100 SEV: 96.6%
  Percent Inhibition, 1:1000 SEV: 96.3%
  Percent Inhibition, 1:10000 SEV: 96.3%
[24]
  OD 405 nm: 0.389
  inhibition of C1q binding (rank in words): greatest inhibition of C1q binding
[25]
  % inhibition of IC binding, FcγIIa* (H131 allele): 94%
  FcγIIa* (H131 allele) (read at 405 nm): 0.209
  inhibited binding of FcγRIIa to immune complexed IgG Fc: more than 70%
[26]
  1 ug/mL GP (OD read at 405 nm): 0.042 and 0.053 and 0.071
  3 ug/mL GP (OD read at 405 nm): 0.042 and 0.046 and 0.081
  Percent Inhibition, 1 ug/mL GP: 96.8% and 96.0% and 94.6%
  Percent Inhibition, 3 ug/mL GP: 96.9% and 96.7% and 94.1%
  Percent Inhibition, 10 ug/mL GP: 97.1% and 96.4% and 94.1%
  prevention of binding of IC to the Ebolavirus glycoprotein (in words): can effectively prevent the binding of IC to the Ebolavirus glycoprotein

## APPCARHLGELVWCT (cysteine pairing not given here) [SEQ ID NO:16]
[18]
  OD405 FcγIIIa: 0.709
[21]
  OD405 FcγIIb: 0.768
[24]
  OD 405 nm: 0.567
  inhibition of C1q binding (rank in words): next best result

## APPCAWHLGELVWCT (cysteine pairing not given here) [SEQ ID NO:14]
[18]
  OD405 FcγIIIa: 0.530
[21]
  OD405 FcγIIb: 0.562
[24]
  OD 405 nm: 1.148

## Asp-Cys-Ala-Trp-His-Leu-Gly-Glu-Leu-Val-Trp-Cys-Thr [SEQ ID NO:2]
[18]
  OD405 FcγIIIa: 0.741
[21]
  OD405 FcγIIb: 0.532
[24]
  OD 405 nm: 1.100

## APPCAFHLGELVWCT (cysteine pairing not given here) [SEQ ID NO:18]
[18]
  OD405 FcγIIIa: 0.880
[21]
  OD405 FcγIIb: 0.380
[24]
  OD 405 nm: 0.983

## horseradish peroxidase (HRP), Sigma-Aldrich P6782 (from UniProt P00433 31-338) (enzyme)
[27]
  OD 405 nm: 0.172 OD 405 nm
[28]
  OD 405 nm: 0.138 OD 405 nm
[29]
  OD 405 nm: 0.117 OD 405 nm
[30]
  OD 405 nm: 0.178 OD 405 nm
[31]
  OD 405 nm: 0.163 OD 405 nm

## Asp-Cys-Ala-Phe-His-Leu-Gly-Glu-Leu-Val-Trp-Cys-Thr [SEQ ID NO:3]
[18]
  OD405 FcγIIIa: 0.810
[21]
  OD405 FcγIIb: 0.510
[24]
  OD 405 nm: 0.859
